# Measured values as given in patent US20200345795A1, “MODULATION OF INTESTINAL MICROBIOTA IN PRE-DIABETES AND TYPE 2 DIABETES” (Medlab IP Pty Ltd, priority 2017, published 2020).
# Test system: intestinal microbiota
# Experiment: Faecal microbial profile (16S rRNA gene sequencing, MALDI-TOF) in randomised placebo-controlled trial
# Assay type: in vivo, human
# Description: The study described herein was a pilot, single site, randomised, double blind, placebo-controlled trial. Ethical approval was granted by the Sydney Local Health District Human Research Ethics Committee, RPA Hospital, Sydney, Australia. The study was carried out according to the Declaration of Helsinki, the National Health and Medical Research Council National Statement on Ethical Conduct in Research Involving Humans and the Notes for Guidance on Good Clinical Practice as adopted by the Australian Therapeutic Goods Administration and the International Conference on Harmonisation Good Clinical Practise guidelines. Written informed consent was obtained from participants before enrolment.
# The active product administered was a capsule containing 5×10^10 colony forming units (cfu) of a multi-strain probiotic combination of Lactobacillus plantarum, Lactobacillus bulgaricus, Lactobacillus gasseri, Bifidobacterum breve, Bifidobacterium animalis subsp. lactis, Bifidobacterium bifidum, Streptococcus thermophilus and Saccharomyces boulardii. The placebo was a capsule containing 50 mg maltodextrin. The probiotic and placebo capsules were opaque white in colour and looked and smelled identical. […]
# Faecal bacterial profiles were determined using the Ion S5 next-generation sequencing platform (Thermo Fisher) and faecal yeasts were identified by matrix-assisted laser desorption ionization time-of-flight mass spectrometry (MALDI-TOF). […] After extraction, DNA was quantified in a Qubit 2.0 Fluorometer (Invitrogen, Thermo Fisher). […] PCR products were quantified and their quality was evaluated by electrophoretic fractionation in 2% agarose gels (E-Gel, EX Agarose Gel, Thermo Fisher). […]
structure (smiles),measurement,setting,value
"CN(C)C(=N)NC(=N)N [metformin, N,N-dimethylimidodicarbonimidic diamide]",intestinal microbial community (beta diversity) at species and genera level,"participants taking vs not taking metformin, p=0.002 (species) and 0.036 (genera)",differed from those not taking metformin
same,effect on intestinal microbiota at the family level,"participants taking vs not taking metformin, p=0.56",no effect
same,relative abundance of Akkermansia municiphila,"those taking metformin in the placebo group, in contrast to the probiotic group",lower relative abundance
